Measurements from article PMC3765993, “The duration of sleep promoting efficacy by dual orexin receptor antagonists is dependent upon receptor occupancy threshold” (BMC Neuroscience, 2013).
Marks after values point to notes of the source that are not given here.

Columns and labels:
rhesus monkeys [1] = test: Rhesus monkey polysomnography (active wake); format: in vivo; details: 10 mg/kg p.o. 2 h before lights out, 10 mg/kg
Protocol: Animals were fed on a calorie-controlled diet of laboratory chow supplemented with fruit and vegetables. Water was available ad libitum with the exception of those monkeys trained to perform cognitive tasks, for which access was restricted for up to 4 h prior to and during cognitive testing. Treatment occurred at 14:40 (Zeitgeber time [ZT] 10:10) in a balanced 1-day cross-over design: 1 day of drug or vehicle followed by 6 days of baseline followed by 1 day of vehicle or drug. Cognition tasks were scheduled for next-day evaluation as described below. Sleep/wake architecture was scored according to vigilance state (active wake, quiet wake, delta sleep I, delta sleep II, and REM sleep) at 30-minute intervals and analyzed as previously described. Spectral analysis of continuous EEG was quantified between vehicle and compound after binning continuous frequencies into canonical frequency bands (reported herein: Delta, 0.5 – 4 Hz; Theta, 4.0 – 7 Hz; Gamma, 35.0 – 100.0 Hz). qEEG values are spectral power (uV2) log transformed before analysis and averaged over 30-minute intervals, expressed as means +/− SEM, and compared with vehicle using a mixed-model ANOVA at each time point with random effects for subject and date within subject in the R statistical computing environment (cran.us.r-project.org; the R Foundation for Statistical Computing, Vienna, Austria) using a linear mixed effects model for significance testing.

rhesus monkeys [2] = test: Monkey Delayed Match to Sample (DMS) task; format: in vivo; details: 10 mg/kg p.o., versus vehicle
Excerpt: All cognition testing occurred in the animal’s home cage equipped with a touchscreen. Each DMS trial was initiated with a single ‘sample’ image (150 × 200 pixels: 1.8 inches × 2.3 inches) in one of eight colors presented at the center of a touchscreen. Evaluation began when the monkey touched the sample image, at which point the screen became blank for a retention period. Following the retention period, four choice images (150 × 200 pixels) were presented, one in each corner of the screen. One of the four choice images matched the color of the sample image, whereas the three remaining ‘distractor’ images were drawn from the pool of remaining colors. A reinforcer was provided when the monkey touched the choice image that matched the color of the sample image. […] Test sessions comprised 96 trials or lasted for up to 45 min. […] Response latencies to sample and choice images were also recorded. Values reported reflect the proportion of correct responses collapsed over all retention intervals. Differences from vehicle were examined using repeated measures ANOVA.

rhesus monkeys [3] = test: Monkey Serial Choice Reaction Time (SCRT) task; format: in vivo; details: 10 mg/kg p.o., versus vehicle, 10 mg/kg
Excerpt: Each SCRT trial was initiated with the appearance of 10 blue square ‘target’ images evenly distributed at 3-inch intervals around the perimeter of a touchscreen presented together with a centrally located circular ‘centering’ image (1.4 inch diameter circle). The task began with the monkey touching the centering image, which then turned gray. The monkey was then required to touch the centering image continuously throughout a variable pre-cue interval of 0.25-7.5 s. On completion of the pre-cue interval, one of the blue target images was cued by turning red for one of four cue durations before turning back to blue. To obtain a reward, the monkey was required to touch the target image that had been ‘cued’ red within a 5 s limited hold period. […] On completion of the trial, an inter-trial interval of 2 s was initiated prior to the next trial. […] If the monkey initiated a trial but removed its hand from the touchscreen prior to the appearance of the cue, the trial was terminated and the screen was blanked during a 2 s inter-trial interval. Sessions were terminated after 20 min. Cue location and duration were pseudo-randomly assigned. Cue duration and the target size were titrated for each subject on the basis of performance during previous baseline sessions to yield a performance of 60–80% correct responses for the trials of the shortest cue duration. The briefest cue duration varied from 0.04–0.1 s and the cues varied in size from 0.2–0.7 inches, although each cue had the same touch-sensitive area of 1.75 inches. Values reported in the current study reflect the proportion of correct responses to targets after cues of the shortest duration only.

rhesus monkeys [4] = details: sleep-promoting doses; cited from earlier work
Orexin 2 receptor = target: T1, Orexin 2 receptor (Homo sapiens, UniProt O43614); test: Orexin 2 receptor binding kinetics; details: for T1/2 ON (binding half-life): almorexant applied 3-fold above its Kd (value an underestimate); for koff: read-out: KOFF (dissociation constant)
T1 sequence (O43614 1-444): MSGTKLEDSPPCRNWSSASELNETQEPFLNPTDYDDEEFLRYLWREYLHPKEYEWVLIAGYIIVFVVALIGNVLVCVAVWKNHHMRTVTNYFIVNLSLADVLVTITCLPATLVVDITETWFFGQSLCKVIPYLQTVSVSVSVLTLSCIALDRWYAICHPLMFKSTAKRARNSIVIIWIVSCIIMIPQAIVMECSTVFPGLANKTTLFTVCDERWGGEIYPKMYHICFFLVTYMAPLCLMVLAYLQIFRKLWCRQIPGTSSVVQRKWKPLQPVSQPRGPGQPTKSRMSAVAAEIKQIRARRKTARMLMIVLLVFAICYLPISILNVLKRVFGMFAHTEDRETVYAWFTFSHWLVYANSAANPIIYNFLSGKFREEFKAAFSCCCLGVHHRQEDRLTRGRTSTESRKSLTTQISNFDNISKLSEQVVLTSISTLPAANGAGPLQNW

rats = test: Rat telemetry polysomnography (time in active wake and sleep stages); format: in vivo; details: 100 mg/kg
Protocol: The mean time spent in sleep stages was determined in radio-telemetry-implanted mice, rats, dogs, and rhesus monkeys as first described by Renger and colleagues and subsequently by Winrow and colleagues with minor modifications. For baseline studies, recordings were taken continuously from unperturbed mice, rats, dogs, and monkeys for 6, 6, 10, or 5 days, respectively, and the mean time spent in all sleep stages in 30-min intervals were averaged and plotted onto a single 24-h period (Figure 1). Almorexant is a DORA [43] that was previously in clinical development for the treatment of insomnia. The clinical development program for almorexant was terminated in early 2011. […] In all cases, mean time in active wake, quiet wake, SWS, and REM sleep was determined for each 30-min interval for 3 days of each condition and averaged onto a single 24-h period. […] Statistical differences in mean time spent in active wake, quiet wake, SWS, and REM sleep between vehicle- and compound-treated groups at 30-min time points were determined by a linear mixed-effects model applied t-test.

[5] = Plasma and CSF compound levels in satellite rats; details: rat, in vivo, 100 mg/kg
Protocol: Separately, the relationship between OX2R occupancy relative to plasma exposure was determined by administering DORA-12 intravenously (i.v.) over a range of doses to transgenic rats expressing human OX2R to determine a full occupancy curve over a wide range of plasma concentrations in order to define the maximal occupancy against which raw occupancy values could be normalized. This relationship was then used to determine the OX2R occupancy in PSG experiments from measured plasma concentrations.
Occupancy of human OX2R in transgenic rats expressing the receptor via the rat enolase promoter was performed ex vivo in radioligand-binding-displacement assays essentially as previously described with minor modifications. To determine the relationship between OX2R occupancy for a given compound over a full range of plasma and CSF concentrations, hOX2R-expressing rats were dosed i.v. with compound. Immediately following 30 min of i.v. administration, animals were anesthetized, sacrificed, and CSF, blood, and brain tissue were harvested and frozen for analysis. Frozen tissue was weighed and thawed coincident with homogenization. The homogenate was pelleted at 21,000 × g for 1 min and the pellet was resuspended. […] Non-specific binding was determined by the addition of 1000-fold excess unlabeled ligand. Experimental (dosed)-specific binding was compared with control (vehicle-dosed) binding ([specific total counts minus specific experimental counts]/specific total counts × 100 = percent occupancy). Raw occupancy values determined in this manner over a range of plasma and CSF values were then used to construct a normalized curve where the theoretical maximum occupancy value was defined as 100% and occupancies relative to plasma or CSF values were fit to a […] (hyperbola) curve (GraphPad Prism, San Diego, CA, USA). […] In separate experiments, plasma, CSF, and brain tissue was collected at time points following dosing to directly measure compound levels and corresponding OX2R occupancies at these times. Resulting occupancy relative to measured plasma levels of compound was fit to a normalized binding curve as described previously.

OX2R [6] = target: T2, OX2R (Rattus norvegicus, UniProt P56719); design: method as in earlier work; details: ref 29 (Dugovic et al. 2009); cited from earlier work
T2 sequence (P56719 1-460): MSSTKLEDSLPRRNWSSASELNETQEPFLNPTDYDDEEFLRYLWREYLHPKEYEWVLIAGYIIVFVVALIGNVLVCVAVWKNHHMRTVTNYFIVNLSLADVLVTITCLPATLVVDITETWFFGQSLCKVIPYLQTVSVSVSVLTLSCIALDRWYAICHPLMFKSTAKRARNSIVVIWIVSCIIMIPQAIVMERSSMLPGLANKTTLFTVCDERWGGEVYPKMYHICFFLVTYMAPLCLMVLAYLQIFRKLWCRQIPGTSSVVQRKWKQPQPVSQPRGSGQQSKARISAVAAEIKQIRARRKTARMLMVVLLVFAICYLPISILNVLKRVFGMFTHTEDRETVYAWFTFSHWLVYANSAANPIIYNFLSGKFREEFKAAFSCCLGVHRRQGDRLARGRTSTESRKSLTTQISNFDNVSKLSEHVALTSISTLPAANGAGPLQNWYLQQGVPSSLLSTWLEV

OX2R [7] = target: T3, OX2R (Homo sapiens, UniProt O43614); test: OX2R occupancy, ex vivo radioligand-binding displacement in transgenic rats expressing human OX2R; design: from tissue; host or cells: brain homogenate of transgenic rats expressing hOX2R under the rat enolase promoter; species or system transgenic rat; details: satellite rats, 100 mg/kg, treatment at onset of inactive phase
T3 sequence (O43614 1-444): T1 sequence (O43614 1-444)
Excerpt: Frozen tissue was weighed and thawed coincident with homogenization.

SMILES | Cognitive assessment in DMS and SCRT tasks within 2 h following treatment (rhesus monkeys [4]) | KON (association constant) (Orexin 2 receptor) [mol⁻¹ min⁻¹] | Kd (Orexin 2 receptor) [nM] | T1/2 OFF (half-life off-rates) (Orexin 2 receptor) [h] | T1/2 ON (binding half-life) (Orexin 2 receptor) | koff (Orexin 2 receptor) [s⁻¹] | further results
CN1C(=O)CN=C(c2ccccc2)c2cc(Cl)ccc21 [Diazepam] | substantial deficits |  |  |  |  |  | Active wake late in the inactive phase and next morning (residual sleep effect) (rhesus monkeys [1]): promoted sleep throughout the normal resting period and into the subsequent active phase; Active wake late in the inactive phase and next morning (residual sleep effect) (rhesus monkeys [1]; listed as diazepam): significantly attenu-ated active wake; Next-day recognition memory (DMS), 14 h after dosing (rhesus monkeys [2]): impacted memory and attention; Next-day recognition memory (DMS), 14 h after dosing (rhesus monkeys [2]; listed as diazepam): Significant deficits; Next-day attention (SCRT, correct responses to shortest cues), 16 h after dosing (rhesus monkeys [3]): impacted memory and attention; Next-day attention (SCRT, correct responses to shortest cues), 16 h after dosing (rhesus monkeys [3]; listed as diazepam): significant deficits
Cc1ccc(-c2ncccn2)c(C(=O)N2C[C@H](COc3ccc(F)cn3)CC[C@H]2C)c1 [MK-6096, [(2R,5R)-5-{[(5-fluoropyridin-2-yl)oxy]methyl}-2-methylpiperidin-1-yl][5-methyl-2-(pyrimidin-2-yl)phenyl]methanone] |  | 1.69e+07 | 0.338 | 1.97 | 62.9 min | 0.000113 | 
Cc1nc(C(=O)N2CCCC[C@H]2CNC(=O)c2cccc3occc23)c(-c2ccc(F)cc2)s1 [SB-649868] |  | 2.56e+07 | 0.163 | 0.95 | 37.0 min | 0.00021 | 
Cc1ccc(-c2nc3ccc(C)cn3c2CC(=O)N(C)C)cc1 [Zolpidem] | substantial deficits |  |  |  |  |  | 
CNC(=O)[C@@H](c1ccccc1)N1CCc2cc(OC)c(OC)cc2[C@@H]1CCc1ccc(C(F)(F)F)cc1 [Almorexant] |  | 1.58e+07 | 0.048 | 4.47 | 162^a min | 4.49e-05 | Duration of active wake reduction following treatment (rats; dosed during active phase): up to 7.5 h; Duration of active wake reduction following treatment (rats; inactive-phase treatment): up to 11 h; Levels within the CSF at 10 h [5]: undetectable; OX2R occupancy above which significant changes appeared (OX2R [6]): above 89%; OX2R occupancy at which efficacy was not observed (OX2R [6]): 78%; OX2R occupancy at 10 h (OX2R [7]): remained elevated
